Data: PMC7845692 (Frontiers in Pharmacology, 2020)
Where a name gives a salt, the structure may show the parent alone. Read-outs that look alike come from different tables or passages of the source.

How the values were obtained:
[1] = in vitro; conditions: cat
Protocol: (§2) The serotype II FIPV Taiwan isolate NTU156 strain, a kind gift from National Taiwan University, was propagated and titrated in Fcwf-4 cells ([Lin et al., 2009]). The EC50 for anti-FIPV activity and CC50 for cell cytotoxicity were determined as previously described ([Yang et al., 2020b]).

[2] = in vitro; conditions: human
[3] = system: Feline infectious peritonitis virus; test: anti-FIPV activity, cytopathic effect by visualization in Fcwf-4 cells; conditions: for EC50: Alphacoronavirus 1, read-out: Feline infectious peritonitis virus EC50 CPE/visualization; for Feline infectious peritonitis virus Selectivity index: CC50/EC50, Fcwf-4 cells
Protocol: as §2

[4] = system: Human coronavirus OC43; test: HCoV-OC43 immunofluorescent assay (IFA) against N protein in HCT-8 cells; type: cell-based; conditions: for EC50: read-out: Human coronavirus OC43 EC50 (IFA); for Human coronavirus OC43 Selectivity index: CC50/EC50, HCT-8 cells
[5] = system: SARS-CoV-2; test: microbe, parasite or virus in culture; type: cell-based
[6] = system: SARS-CoV-2; test: SARS-CoV-2 cytopathic effect by visualization in Vero E6 cells; type: cell-based
Protocol: (§1) CPE was performed as described ([Wu et al., 2004]). For IFA, Vero E6 cells (BCRC number: 60476; derived from ATCC CRL-1586) were treated with each compound at the indicated concentration for 1 h at 37°C. The cells were adsorbed with SARS-CoV-2 (TCDC#4) (sequence available on the GISAID website) at an MOI = 0.01 for 1 h at 37°C. After virus adsorption, the cells were washed with PBS and fresh medium containing each compound at the indicated concentration was added. After 2 days, cells were fixed with 4% paraformaldehyde and permeabilized with 0.5% Triton X-100. The cells were stained with anti-SARS-CoV-2 N protein antibody, provided by Dr. An-Suei Yang of the Genomics Research Center, Academia Sinica, and goat anti-human IgG-Alexa Fluor 488 (A11013, Invitrogen) (in green). The nuclei were counter stained with DAPI (in blue) (D1306, Invitrogen). The N protein expression was measured using a high-content image analysis system (Molecular Devices). The cell viability was determined by Cell Counting Kit-8 (CCK-8) (Sigma-Aldrich, cat #96992). EC50 and CC50 values were calculated by Prism software.

[7] = system: HCoV-OC43; test: HCoV-OC43 viral yield, end point dilution assay / TCID50; type: cell-based, Human coronavirus OC43
[8] = system: SARS-CoV-2; test: SARS-CoV-2 IFA against N protein in Vero E6 cells; type: cell-based
Protocol: as §1

[9] = system: HCoV-229E; test: HCoV-229E viral yield, end point dilution assay / TCID50; conditions: MRC-5, MOI 0.05
[10] = HCT-8 cell viability (MTS); conditions: human, HCT-8 cells
[11] = system: Human coronavirus 229E; test: HCoV-229E cytopathic effect, crystal violet absorbance in MRC-5 cells; conditions: CC50/EC50, MRC-5 cells
[12] = in vitro; conditions: human, MRC-5 cells
[13] = Vero E6 cell viability (CCK-8); type: cell-based; conditions: African green monkey, Vero E6 cells; read-out: SARS-CoV-2 CC50 CCK-8
Protocol: as §1

[14] = system: HCoV-229E; test: HCoV-229E viral RNA (ORF1, ORF N) by semi-RT-qPCR in MRC-5 cells; type: cell-based, Human coronavirus 229E; conditions: MRC-5, MOI 1, 30 h.p.i., 10–300 nM, dose dependent
Protocol: These experiments were performed as described ([Yang et al., 2007b]). Mock or HCoV-229E infected (MOI of 1) lysates were processed and prepared at 30 h.p.i. without or with compound treatment. The total RNA was extracted with TRIzol reagent (Invitrogen). The relative viral RNA expression levels were determined by semi-RT-qPCR, analyzed with the ImageJ Analyzer program (http://imagej.nih.gov/ij/index.html), and normalized with the housekeeping gene GAPDH. The primers used to amplify the PCR products were 5′-GGCGAGGTGGAATTTGTTTA-3′ and 5′-ACCTTTAAGCCACCATGTGC-3′ for ORF1; 5′-TCTGCCAAGAGTCTTGCTCG-3′ and 5′-AGCATAGCAGCTGTTGACGG-3′ for ORF N. The amplification of target cDNA was conducted under the following conditions: 25 cycles of 95°C for 30 s, 55°C for 20 s, and 72°C for 30 s for ORF N; 29 cycles of 95°C for 30 s, 55°C for 20 s, and 72°C for 30 s for ORF1, and 35 cycles of 95°C for 30 s, 55°C for 20 s, and 72°C for 30 s for GAPDH. The final PCR products were subjected to electrophoresis on 2% agarose gel containing ethidium bromide along with DNA markers.

[15] = Vero E6 cytotoxicity by visualization; type: cell-based; conditions: African green monkey, Vero E6 cells; read-out: SARS-CoV-2 CC50 Visualization
Protocol: as §1

[16] = cell cytotoxicity by visualization (FIPV host cells); conditions: cat
Protocol: as §2

[17] = Betacoronavirus 1, OC43, HCT-8, 72 h

Q: Which CC50 [1] does the source give for `C[C@H]1O[C@@H](O[C@H]2[C@@H](O)C[C@H](O[C@H]3[C@@H](O)C[C@H](O[C@H]4CC[C@@]5(C)[C@H](CC[C@@H]6[C@@H]5CC[C@]5(C)[C@@H](C7=CC(=O)OC7)CC[C@]65O)C4)O[C@@H]3C)O[C@@H]2C)C[C@H](O)[C@@H]1O` [Digitoxin, digitoxin] here?
A: 0.825 ± 0.195 µM

Q: What about the CC50 [2] of the same compound?
A: 0.909 ± 0.123 µM

Q: And the EC50 [3]?
A: 0.097 ± 0.006 µM

Q: What about the “Feline infectious peritonitis virus Selectivity index” value [3] of the same compound?
A: 8.5

Q: What about the EC50 ([4]; Betacoronavirus 1, OC43, HCT-8 cells, MOI 0.05, 72 h.p.i., means ± SD) of the same compound?
A: 0.088 ± 0.016 µM

Q: What about the “Human coronavirus OC43 Selectivity index” value [4] of the same compound?
A: 10.3

Q: For `C[C@]12CCC(=NOCCN)C[C@@H]1C(=O)C[C@@H]1[C@@H]2CC[C@]2(C)C(=O)CC[C@@H]12` [Istaroxime, istaroxime hydrochloride], which CC50 [1] is on record?
A: 7.12 ± 0.75 µM

Q: And the CC50 at 72 h [2]?
A: 32 µM

Q: What about the EC50 [3] of the same compound?
A: 2.16 µM

Q: And the “Feline infectious peritonitis virus Selectivity index” value [3]?
A: 3.3

Q: What about the EC50 [4, 17] of the same compound?
A: 5.42 ± 0.268 µM

Q: What about the “Human coronavirus OC43 Selectivity index” value [4] of the same compound?
A: 5.9

Q: With `CCN1Cc2c(c3ccc(OC)cc3c3cc(OC)c(OC)cc23)C(O)C1` (stereo not shown) [dbq33b] as the compound, how does the EC50 ([5]; Severe acute respiratory syndrome coronavirus 2, Vero C1008, read-out: SARS-CoV-2 plaque assay EC50, Vero E6 cells) read?
A: 0.014 µM

Q: What about the EC50 ([5]; Severe acute respiratory syndrome coronavirus 2, Vero C1008, read-out: SARS-CoV-2 plaque assay EC50, Vero E6 cells, 5–7 days, Figure 5B-b) of the same compound?
A: 0.0138 ± 0.0003 µM

Q: What about the “SARS-CoV-2 Selectivity index (CPE/visualization)” value ([6]; CC50/EC50, Vero E6 cells) of the same compound?
A: 500

Q: And the EC50 ([6]; Severe acute respiratory syndrome coronavirus 2, Vero C1008, Vero E6 cells, means from duplicate, read-out: SARS-CoV-2 EC50 CPE/visualization)?
A: 0.0025 µM

Q: And the “complete reduction of HCoV-OC43 viral yield” value ([7]; HCT-8, MOI 0.05, supernatant 72 h.p.i., at 30, 100 and 300 nM respectively (dbq33b, dbq33b4p7, PI09))?
A: 7–8 log of magnitudes

Q: And the “concentration accomplishing complete reduction of HCoV-OC43 viral yield” value ([7]; HCT-8, MOI 0.05, reduction ∼7–8 log)?
A: 30 nM

Q: And the “SARS-CoV-2 Selectivity index (IFA/CCK-8)” value ([8]; CC50/EC50, Vero E6 cells)?
A: 367

Q: What about the EC50 ([8]; Severe acute respiratory syndrome coronavirus 2, Vero C1008, 48 h, read-out: SARS-CoV-2 EC50 IFA, Vero E6 cells, MOI 0.01, 2 d.p.i., N protein) of the same compound?
A: 0.014 µM

Q: And the EC50 ([8]; Vero E6 cells, MOI 0.01, 2 d.p.i., N protein, read-out: SARS-CoV-2 EC50 IFA)?
A: 0.0139 µM

Q: What about the “complete reduction of HCoV-229E viral yield” value ([9]; at 100, 300 and 600 nM respectively (dbq33b, dbq33b4p7, PI09)) of the same compound?
A: 6–7 log of magnitudes

Q: And the “concentration giving complete reduction of HCoV-229E viral yield” value ([9]; reduction 6–7 log)?
A: 100 nM

Q: And the CC50 at 72 h [10]?
A: > 10 µM

Q: And the “Human coronavirus 229E Selectivity index” value [11]?
A: 264

Q: What about the CC50 [12] of the same compound?
A: 1.71 µM

Q: And the EC50 [3]?
A: 0.008 ± 0.002 µM

Q: What about the “Feline infectious peritonitis virus Selectivity index” value [3] of the same compound?
A: 390.6

Q: What about the CC50 [13] of the same compound?
A: 5.1 µM

Q: What about the EC50 [4, 17] of the same compound?
A: 0.016 ± 0.005 µM

Q: And the “Human coronavirus OC43 Selectivity index” value [4]?
A: >610

Q: And the “effect on HCoV-229E viral genome replication and subgenomic viral RNA syntheses (RT-PCR ORF1, ORF N)” value [14]?
A: inhibited HCoV-229E viral genome replication and subgenomic viral RNA syntheses

Q: And the CC50 [15]?
A: 1.25 µM

Q: And the CC50 [16]?
A: 3.12 µM
